Laboratory results published in publication PMC11678425, “(-)-Syringaresinol Exerts an Antidepressant-like Activity in Mice by Noncompetitive Inhibition of the Serotonin Transporter” (Pharmaceuticals, 2024).

Tests used:
[1] = system: CUMS mice; settings: all tested dosages, i.p.
[2] = system: BDNF, PSD-95, GluA1, and vGluT1; experiment: Immunoblot of synaptic proteins in hippocampus of CUMS mice; type: in vivo, mouse; settings: same dosage as fluoxetine (10 mg/kg i.p.)
Description: (§1) Figure 8 SYR effects on the expression of c-Fos and synaptic proteins in the hippocampus. (A) Representative immunohistochemical images of c-Fos expression in the hippocampus with the indicated treatments. (B) Quantitative analysis for hippocampal c-Fos expression with various treatments. Protein expression level is expressed as a percentage of c-Fos fluorescence measured in the control group. Bars represent the mean ± SEM (n = 4). ** p < 0.01 compared with the control or CUMS group by one-way ANOVA followed by post hoc tests. (C) Representative immunoblots of the synaptic proteins BDNF, PSD-95, GluA1, and vGluT1 with various treatments. (D–G) Quantification of the expression of synaptic proteins BDNF (D), PSD-95 (E), GluA1 (F), and vGluT1 (G). The expression level is expressed as a percentage of the integrated density obtained from the control group. Bars represent the mean ± SEM (n = 4). * p < 0.05, ** p < 0.01 by one-way ANOVA followed by post hoc tests.
Synaptic proteins were extracted from mPFC or hippocampus tissues using RIPA lysis buffer, respectively. Expression of the indicated proteins under various treatments was then analyzed by immunoblotting, as previously reported. […] Quantification of immunoreactive protein bands was performed using Image J v1.53u, and GAPDH was used as an internal reference to normalize expression levels of those proteins, respectively.

[3] = system: c-Fos; experiment: c-Fos immunohistochemistry in hippocampus of CUMS mice; type: in vivo, mouse; settings: same dosage as fluoxetine (10 mg/kg i.p.)
Description: as §1
Mouse mPFC and hippocampal slices were prepared as previously described. Briefly, mice were deeply anesthetized with 4% pentobarbital sodium (Sigma-Aldrich, Saint Louis, MI, USA), and perfused transcardially with PBS, followed by 4% phosphate-buffered paraformaldehyde. […]

[4] = Daily body weight during drug administration; settings: all tested dosages, 14-day administration, in comparison with the control group
[5] = system: CUMS mice; experiment: Forced swim test (FST) in CUMS mice; type: in vivo, mouse; settings: 10 mg/kg, i.p., 2 weeks
Method: (§2) C57BL/6 adult (6–8 weeks, body weight, 18–22 g) male mice were maintained and handled in a standard condition at the Experimental Animal Center of Southern Medical University (Guangzhou, China). Animal use was approved by the Animal Use and Care Committee of Southern Medical University (approved code: SMUL2021177, approved date: 12 December 2021). The CUMS procedure was carried out according to a protocol described previously. Except for those in the control group, mice were randomly exposed to two mild unpredictable stressors per day for 3 weeks. The stressors included water deprivation, restraint, tilted cage, wet/no bedding, rotation, peppermint, noise, and inverted light off/on. Mice in the control group were group housed without any stressors throughout the procedure. […] NSFT was performed after 16 h food deprivation, as described previously. The mouse was placed in an open field (24 × 40 × 14 cm), where a new chow was put in the center, and the latency time to bite food was counted over 10 min. Home cage feeding within a 20 min period was measured after the test. FST was carried out according to a protocol described previously. The mouse was placed into a beaker (Bomex, Beijing, China) with a height of 18 cm filled with water (22 ± 1 °C) for 6 min. The immobile time was measured during minutes 2–6. TST was performed according to a previous description. The mouse was suspended from a hook that hung from a suspension bar by placing a piece of adhesive tape on its tail about 1 cm away from the tip. The immobile time during minutes 2–6 was measured.

[6] = system: CUMS mice; experiment: Tail suspension test (TST) in CUMS mice; type: in vivo, mouse; settings: 10 mg/kg, i.p., 2 weeks
Method: as §2

[7] = system: CUMS mice; experiment: Home cage food consumption after NSFT; type: in vivo, mouse; settings: all tested dosages, in comparison with the control group
Method: Figure 6 Animal behavioral tests. (A) Schematic illustration of animal behavioral test timeline. Mice were exposed to CUMS for 3 weeks, as described in Section 4. […] For the CUMS group, saline was given instead of drugs. NSFT was performed after 16–18 h food deprivation, followed by FST and TST. (B) NSFT. The latency time to food in NSFT was counted. (C) Home cage food consumption. Food consumed by individual mice in the home cage (g) within a 20 min period was measured after NSFT. (D) FST. The immobility time during a 2 to 6 min period in FST was measured. (E) TST. The immobility time during 2 to 6 min was counted. n = 8–10 mice/group. Bars represent the mean ± SEM. * p < 0.05 compared with the control or CUMS group, respectively, by one-way ANOVA followed by post hoc tests. ns, not significant.
NSFT was performed after 16 h food deprivation, as described previously. The mouse was placed in an open field (24 × 40 × 14 cm), where a new chow was put in the center, and the latency time to bite food was counted over 10 min. Home cage feeding within a 20 min period was measured after the test. FST was carried out according to a protocol described previously. The mouse was placed into a beaker (Bomex, Beijing, China) with a height of 18 cm filled with water (22 ± 1 °C) for 6 min. The immobile time was measured during minutes 2–6. […] The immobile time during minutes 2–6 was measured.

[8] = system: CUMS mice; experiment: Novelty suppressed feeding test (NSFT) in CUMS mice; type: in vivo, mouse; settings: 10 mg/kg, i.p., 2 weeks
Method: as §2

[9] = system: c-Fos; experiment: c-Fos immunohistochemistry in mPFC of CUMS mice; type: in vivo, mouse; settings: 10 mg/kg i.p.
Method: Figure 7 SYR effects on the expression of c-Fos and synaptic proteins in mPFC. (A) Representative immunohistochemical images of c-Fos expression in mPFC under the indicated treatments. Immunohistochemistry of c-Fos was performed with mPFC slices as described in Section 4. The slices were re-probed with anti-DAPI antibody. Immunofluorescence images for c-Fos (green) and DAPI (blue) were acquired by confocal microscopy. (B) Quantitative analysis for c-Fos expression in mPFC with various treatments. Protein expression is expressed as a percentage of c-Fos fluorescence measured in the control group. Bars represent the mean ± SEM (n = 4). * p < 0.05, ** p < 0.01 compared with the control or CUMS group by one-way ANOVA followed by post hoc tests, respectively. (C) Representative immunoblots of the synaptic proteins BDNF, PSD-95, GluA1, and vGluT1 with various treatments. (D–G) Quantification of the expression of the synaptic proteins BDNF (D), PSD-95 (E), GluA1 (F), and vGluT1 (G). The expression level is expressed as a percentage of the integrated density obtained from the control group. Bars represent the mean ± SEM (n = 4). * p < 0.05, ** p < 0.01 by one-way ANOVA followed by post hoc tests.
Mouse mPFC and hippocampal slices were prepared as previously described. […]

[10] = set-up: method as in PMID 21869687, PMID 25500685; settings: clinically observed; cited from earlier work
[11] = system: 5-HT1A receptor; set-up: method as in PMID 27508501; settings: higher potency than its inhibition of SERT activity; cited from earlier work

## CNCCC(Oc1ccc(C(F)(F)F)cc1)c1ccccc1 (stereo not drawn) [fluoxetine, reference compound]
[1]
  fatality rate: zero fatality rate
[2]
  CUMS-induced decrease in expression of synaptic proteins in the hippocampus: effectively alleviate
[3]
  CUMS-induced decrease in expression of c-Fos in the hippocampus: effectively alleviate
[4]
  daily body weight changes: little effect
[5]
  CUMS-induced increase in immobility in FST: remarkably alleviated
[6]
  CUMS-induced increase in immobility in TST: remarkably alleviated
[7]
  home cage food consumption: little effect
[8]
  CUMS-induced increase in latency to food in NSFT: remarkably alleviated
[9]
  CUMS-induced decrease in expression of c-Fos in mPFC: reversed

## N#Cc1ccc2[nH]cc(CCCCN3CCN(c4ccc5oc(C(N)=O)cc5c4)CC3)c2c1 [vilazodone]
[10]
  sexual dysfunction: not associated with sexual dysfunction
  weight gain: reduce weight gain
[11]
  action at 5-HT1A receptor: partial agonist
